Test results taken from paper PMC7176276, “Elucidating the possible mechanism of action of some pathogen box compounds against Leishmania donovani” (PLoS Neglected Tropical Diseases, 2020).

Experiments:
[1] = test system: Leishmania donovani promastigotes; assay: Growth kinetics assay against promastigotes; assay type: cell-based; conditions: for incubation time after which decline in the parasite population was observed: promastigotes, 1μg/mL
Protocol: Promastigotes of L. donovani (2 x 10^4 cells) were incubated at 25° C in the presence of the test compounds (at 1μg/mL for each compound) in M199 containing 10% FBS (complete medium). Promastigotes treated with amphotericin B (0–50 μg/ml) served as positive control while untreated promastigotes in the medium alone served as negative control. Aliquots from treated and control parasites were diluted in 0.02 M PBS (pH 7.2) and the viable cells counted daily for 5 days using a Neubauer haemocytometer and a phase-contrast microscope under a 40x objective.

[2] = test system: RAW 264.7 macrophage cell line; assay: Cytotoxicity test against RAW macrophage cell line using MTT assay; assay type: cell-based, murine; conditions: RAW 264.7, 48 hours
Protocol: A murine macrophage cell line (RAW 264.7) was cultured in DMEM medium supplemented with penicillin G sodium (100 μg/mL), streptomycin sulfate (100 μg/mL) and 10% FBS. Macrophages at a density of 1 x 10^6 cells/mL were incubated at different concentrations (ranging from 0.39–100 μg/mL) of the compounds for 48 hours in a CO2 incubator (5% CO2, 37° C). Macrophages without any treatment were taken as negative control and amphotericin B was used as positive control. At the termination of the assay, MTT was added and incubated for an additional 3 hours. Acidified isopropanol was added to the set-up to solubilize the formazan crystals formed by the viable cells. The intensity of formazan formation was read on an Elisa plate reader (Varioskan Lux Elisa microplate reader, Thermo Fischer Scientific, USA) at 570 nm. The 50% cytotoxic concentrations (CC50) of the compounds were determined by analysis of dose-response curves. Selectivity index or therapeutic index was calculated as a ratio of CC50 RAW 264.7/IC50 L. donovani promastigotes or amastigotes.

[3] = test system: Leishmania donovani promastigotes; assay: In vitro antileishmanial activity assay, promastigotes (MTT); assay type: cell-based; conditions: for Therapeutic Index (TC50/IC50) promastigotes: TC50 RAW 264.7 / IC50 promastigotes
[4] = test system: Leishmania donovani promastigotes; assay: Growth reversibility assay (cytocidal/cytostatic) against promastigotes; assay type: cell-based; conditions: for cytocidal or cytostatic effect: growth reversibility profile after drug withdrawal; for growth reversal / reversibility of growth inhibition: promastigotes washed after 5 days of treatment; for growth reversal: regrown 4 days in fresh medium; for reversibility of growth inhibition: regrown 4 days
Protocol: However, to confirm the cytocidal or cytostatic effect of the test compounds, the treated and untreated parasites after 5 days of incubation were washed twice with fresh M199 and then resuspended in complete M199 media and allowed to grow further at 25° C; the viable promastigotes were enumerated microscopically after 4 days.

human red blood cells = assay: Haemolysis assay against the human red blood cells; assay type: cell-based; conditions: 2% haematocrit, 3 hours
Protocol: The haemolytic effect of the compounds were tested against the human red blood cells at a density of 2% haematocrit. The method described by Kazi et al was used with slight modification. In this study, human red blood cells were used, the respective test compounds were incubated for 3 hours and 1% triton X100 served as the positive control. At the end of the assay the supernatant was read on a microtiter plate reader (Varioskan Lux Elisa microplate reader, Thermo Fischer Scientific, USA) at 415 nm. The 50% haemolytic concentration (HC50) of the compounds were determined by analysis of dose-response curves.

[5] = test system: Leishmania donovani amastigotes; assay: In vitro antileishmanial activity assay, macrophage-amastigotes model (MTT); assay type: cell-based; conditions: TC50 RAW 264.7 / IC50 amastigotes
Protocol: Leishmania donovani (MHOM/SD/62/1S strain) was a kind gift from Dr. Yamthe Lauve (Bei Resources NIAID, NIH). The promastigotes were cultured in M199 medium supplemented with 10% heat-inactivated fetal bovine serum (FBS), penicillin G sodium (100 μg/mL) and streptomycin sulfate (100 μg/mL) at 25° C and subcultured every 72 hours in the same medium at a mean density of 1 x 10^5 cells/mL [9]. The murine macrophage cell line RAW 264.7 (RIKEN BioResource Centre Cell Bank, Japan) were kindly provided by Professor Regina Appiah-Opong of the Clinical Pathology Department, Noguchi Memorial Institute for Medical Research, Ghana. RAW 264.7 were grown at 37° C in DMEM medium (pH 7.4) supplemented with 10% heat-inactivated FBS for 48–72 hours in 5% CO2 and subcultured in fresh DMEM medium at a mean density of 1 x 10^5 cells/mL.
Amphotericin B was used as a reference antileishmanial drug (positive control). RAW 264.7 macrophage cells were infected with promastigotes at a density of 1:10 ratio for 12 hours, after which the non-phagocytosed promastigotes were discarded (by aspirating them alongside the media) and the amastigote cells within the macrophages were treated with the compounds (in fresh complete media) to test their growth inhibitory activity using the method described previously. Parasite viability was assessed using the 3-(4,5-Dimethylthiazol-2-yl)-2,5-diphenyltetrazolium bromide (MTT) method in which the rate of formazan crystal formation was used as an index of cell viability as described by Mosmann. Fluorescence was measured with a Varioskan Lux Elisa microplate reader (Thermo Fischer Scientific, USA) at a wavelength of 570 nm. The fluorescence counts were plotted against the drug concentrations and the 50% inhibitory concentration (IC50) was determined by analysis of the dose-response curves using excel.

[6] = test system: Leishmania donovani promastigotes; assay: Morphological and mitochondrion integrity analysis by fluorescence microscopy (DAPI, MitoTracker); assay type: cell-based; conditions: 1μg/mL; for parasite cells with degeneration/disintegration of DNA (nucleus, kinetoplast) and mitochondrion: 72 hours
Protocol: Leishmania donovani promastigotes (2 x 10^4 cells) were treated with the test compounds at 1μg/mL (point concentration). They were then incubated for 24 hours and 72 hours in order to study their morphological changes and to see the changes in their mitochondrial integrity using DAPI and MitoTracker red dye respectively. The assay was performed using the methods described by Amisigo et al with slight modifications. Here the Mitotracker red dye was added to the pelleted promastigote cells at a concentration of 100 nM, resuspended in 1 mL of FBS-free M199 media with 1% BSA (Bovine Serum Albumin) and incubated for 30 minutes.

[7] = test system: Leishmania donovani promastigotes; assay: Cell cycle progression analysis by flow cytometry; assay type: cell-based; conditions: 2x IC50, 24 hours; for change in the number of cells at the G2/M phase: versus untreated
Protocol: Guava Cell Cycle Reagent (catalog No. 4500–0220) was used to stain the cells and the number of cells in G0/G1, S and G2/M phases were determined. Briefly, treated and untreated cells were pelleted and fixed in 70% ice-cold ethanol for an hour at -20°C, the suspended cells were then pelleted by centrifugation at 1500 rpm for 10 minutes. The supernatants were discarded, and the pelleted cells were washed twice with 1X PBS to ensure total removal of the ethanol. To a 200 μL of the cell pellets, a 200 μL of the Gauva Cell Cycle Reagent was added and incubated at room temperature (25°C) for 30 minutes in the dark. Cell distribution at the distinct cell cycle phases were measured using flow cytometer (BD LSR Fortessa X-20 analyzer BD Biosciences San Jose, CA 95131 USA). Data generated were analyzed using the FlowJo V10 software.

[8] = test system: Leishmania donovani amastigote; design: method as in PMID 25690568; conditions: earlier report ref 18; cited from earlier work
L. major = test system: L. major; design: method as in PMID 25690568; conditions: earlier report ref 18; cited from earlier work
[9] = test system: Leishmania donovani promastigote; design: method as in PMID 25690568; conditions: earlier report ref 18; cited from earlier work
[10] = test system: Leishmania donovani promastigotes; assay: Apoptotic and necrotic potentials, Annexin V-FITC/PI flow cytometry; assay type: cell-based; conditions: 2x IC50, 24 hours; far less than in the untreated cells
Protocol: Briefly, treated promastigote cells were washed twice with cold 1x PBS and then resuspended in 1x binding buffer at a cell density of 1 x 10^6 cells/mL. To a 100 μL of the suspended cells, 5 μL of Annexin V-FITC and 5 μL of Propidium Iodide (PI) were added. The mixture was gently vortexed and allowed to incubate for 15 minutes at room temperature (25°C) in the dark. To the set-up, 400 μL of 1x binding buffer was added and the assay was read by flow cytometry (BD LSR Fortessa X-20 analyzer BD Biosciences, San Jose, CA 95131 USA) and the results analyzed using FlowJo version 10 software.

L. infantum = test system: L. infantum; design: method as in PMID 25690568; conditions: earlier report ref 18; cited from earlier work

| SMILES | TC50(μM)±SD RAW [2] | Therapeutic Index (TC50/IC50) promastigotes [3] | cytocidal or cytostatic effect [4] | growth reversal [4] | incubation time after which decline in the parasite population was observed [1] | HC50 (50% haemolytic concentration) (human red blood cells) | Therapeutic Index (TC50/IC50) amastigotes [5] | parasite cells with degeneration/disintegration of DNA (nucleus, kinetoplast) and mitochondrion [6] | cells at the S phase [7] | change in the number of cells at the G2/M phase [7] | reversibility of growth inhibition [4] | apoptosis and necrosis of promastigotes [10] | parasite cells showing no obvious DNA and mitochondrion abnormality ([6]; 24 hours) | other results |
| --- | --- | --- | --- | --- | --- | --- | --- | --- | --- | --- | --- | --- | --- | --- |
| C[C@@H]1[C@H](O)[C@@H](C)/C=C/C=C/C=C/C=C/C=C/C=C/C=C/[C@H](O[C@@H]2O[C@H](C)[C@@H](O)[C@H](N)[C@@H]2O)C[C@@H]2O[C@](O)(C[C@@H](O)C[C@@H](O)[C@H](O)CC[C@@H](O)C[C@@H](O)CC(=O)O[C@H]1C)C[C@H](O)[C@H]2C(=O)O [Amphotericin B, amphotericin B, reference compound] | 15.75 ± 0.03 µM | 3.0 |  |  |  |  |  |  |  |  |  |  |  | effect on growth of promastigotes (growth kinetics) ([1]; viable cells counted daily for 5 days, compared with untreated control): no viable cells observed after 24 hours; IC50 ([3]; Leishmania donovani, 96 h, promastigotes, 4 days at 25° C, MTT, mean ±SD of three experiments): 5.3 ± 0.03 µM |
| CNC(=O)C1Cc2ccccc2N1C(=O)Cc1ccc(F)cc1 (centres unmarked) [MMV188296] |  | 914 | cytostatic | 56.5% | 48 h | >100 µg/mL | 237 | more than 90% |  |  |  |  |  | parasite population with loss in mitochondrion integrity ([6]; 24 hours): 40% |
| CC(C)(C)OC(=O)N1CCN(c2[nH]nnc2-c2ccc(Oc3ccccc3)cc2)CC1 [MMV676057] |  | 432 | cytocidal |  | 48 h | >100 µg/mL | 16 | about 85% | 23% | no significant change | not reversible | slight apoptosis and necrosis | About 70% | cells at the G0-G1 phase ([7]; untreated 30%): 23%; IC50 [8]: > 10 µM; IC50 (L. major): 13 µM; IC50 [9]: 1.3 µM; IC50 (L. infantum): 10.2 µM |
| Cc1nn2c(=O)c3c([nH]c2c1-c1ccc(Cl)cc1)CCCC3 [MMV688776] | 50 ± 0.02 µM | 19 | cytostatic | 57.9% | 24 h | >100 µg/mL | 1 | About 70% |  |  |  |  | About 70% |  |
| CCc1nn(C)c(C(=O)NCc2ccc(Oc3ccc(C)cc3)cc2)c1Cl [MMV688934] |  | 416 | cytostatic | 32.3% | 24 h | >100 µg/mL | 453 | more than 90% |  |  |  |  |  | promastigotes showing enlargement of the nucleus and kinetoplast with the mitochondria losing its normal shape ([6]; 24 hours): 70% |
| CC(C)(C)C(O)C(Oc1ccc(-c2ccccc2)cc1)n1cncn1 (centres unmarked) [MMV688942] |  | 43 | cytocidal |  | 48 h | >100 µg/mL | 16 | 85% | 28% | no significant change | not reversible | slight apoptosis and necrosis |  | parasites showing loss of kinetoplast ([6]; 24 hours): about 30% |
